Assays:
human COX-2 = biological target: T1, human COX-2 (Homo sapiens, UniProt P35354); assay: Inhibition of PGE2 release in COS cells stably transfected with human COX-2; type: cell-based; settings: 30 μM arachidonic acid
T1 construct: expressed in transfected cells
T1 sequence (P35354 18-604): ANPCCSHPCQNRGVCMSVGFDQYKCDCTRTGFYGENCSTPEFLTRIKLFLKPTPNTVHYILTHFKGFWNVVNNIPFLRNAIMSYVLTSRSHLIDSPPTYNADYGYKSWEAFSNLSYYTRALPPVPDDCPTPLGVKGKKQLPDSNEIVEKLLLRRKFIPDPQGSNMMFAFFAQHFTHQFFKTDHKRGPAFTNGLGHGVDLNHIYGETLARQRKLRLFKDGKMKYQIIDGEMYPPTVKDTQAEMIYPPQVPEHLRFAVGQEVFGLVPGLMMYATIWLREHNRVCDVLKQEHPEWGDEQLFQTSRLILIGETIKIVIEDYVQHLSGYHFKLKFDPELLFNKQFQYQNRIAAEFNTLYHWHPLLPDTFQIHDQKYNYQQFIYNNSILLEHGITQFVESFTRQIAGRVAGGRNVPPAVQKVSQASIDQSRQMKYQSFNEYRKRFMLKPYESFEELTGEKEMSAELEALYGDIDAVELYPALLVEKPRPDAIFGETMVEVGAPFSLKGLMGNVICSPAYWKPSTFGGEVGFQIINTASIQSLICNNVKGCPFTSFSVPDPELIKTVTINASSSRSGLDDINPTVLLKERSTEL
Procedure: (§1) Inhibitory activity against human COX-1 and COX-2 was assessed in COS cells which had been stably transfected with cDNA for human COX-1 and human COX-2. 24 Hours prior to experiment, COS cells were transferred from the 175 cm^2 flasks in which they were grown, onto 24-well cell culture plates using the following procedure. The incubation medium (Dulbecco's modified eagles medium (DMEM) supplemented with heat-inactivated foetal calf serum (10% v/v), penicillin (100 IU/ml), streptomycin (100 μg/ml) and geneticin (600 μg/ml)) was removed from a flask of confluent cells (1 flask at confluency contains approximately 1×10^7 cells). 5 ml of phosphate buffered saline (PBS) was added to the flask to wash the cells. Having discarded the PBS, cells were then incubated with 5 ml trypsin for 5 minutes in an incubator […]. The flask was then removed from the incubator and 5 ml of fresh incubation medium was added. The contents of the flask was transferred to a 250 ml sterile container and the volume of incubation medium subsequently made up to 100 ml. 1 ml cell suspension was pipetted into each well of 4×24-well cell culture plates. The plates were then placed in an incubator (37° C., 95% air/5% CO2) overnight. If more than 1 flask of cells were required, the cells from the individual flasks were combined before being dispensed into the 24-well plates.
Following the overnight incubation, the incubation medium was completely removed from the 24-well cell culture plates and replaced with 250 μl fresh DMEM (37° C.). The test compounds were made up to 250× the required test concentration in DMSO and were added to the wells in a volume of 1 μl. Plates were then mixed gently by swirling and then placed in an incubator for 1 hour (37° C., 95% air/5% CO2). […] Plates were then incubated for a further 10 minutes, after which the incubation medium was removed from each well of the plates and stored at −20° C., prior to determination of prostaglandin E2 (PGE2) levels using enzyme immunoassay. […] The selectivity ratio of inhibition of COX-1 versus COX-2 was calculated by comparing respective IC50 values.

human COX-1 = biological target: T2, human COX-1 (Homo sapiens, UniProt P23219); assay: Inhibition of PGE2 release in COS cells stably transfected with human COX-1; type: cell-based; settings: 30 μM arachidonic acid
T2 construct: expressed in transfected cells
T2 sequence (P23219 24-599): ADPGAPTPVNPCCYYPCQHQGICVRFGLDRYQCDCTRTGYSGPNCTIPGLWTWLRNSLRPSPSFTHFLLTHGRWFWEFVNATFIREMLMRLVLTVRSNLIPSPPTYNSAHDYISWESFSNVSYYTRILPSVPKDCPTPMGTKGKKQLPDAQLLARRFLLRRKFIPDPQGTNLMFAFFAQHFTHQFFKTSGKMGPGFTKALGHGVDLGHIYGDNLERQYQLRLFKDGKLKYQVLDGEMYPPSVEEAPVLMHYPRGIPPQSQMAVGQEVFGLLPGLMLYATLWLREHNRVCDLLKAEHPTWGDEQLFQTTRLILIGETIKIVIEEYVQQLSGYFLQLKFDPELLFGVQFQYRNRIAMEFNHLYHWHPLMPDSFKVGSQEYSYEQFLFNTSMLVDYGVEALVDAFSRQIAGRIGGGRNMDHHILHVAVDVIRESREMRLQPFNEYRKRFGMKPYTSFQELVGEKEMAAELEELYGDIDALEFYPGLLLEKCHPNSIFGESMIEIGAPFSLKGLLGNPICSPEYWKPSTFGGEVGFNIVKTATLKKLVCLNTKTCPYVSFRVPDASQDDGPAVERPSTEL
Procedure: as §1
Following the overnight incubation, the incubation medium was completely removed from the 24-well cell culture plates and replaced with 250 μl fresh DMEM (37° C.). The test compounds were made up to 250× the required test concentration in DMSO and were added to the wells in a volume of 1 μl. Plates were then mixed gently by swirling and then placed in an incubator for 1 hour (37° C., 95% air/5% CO2). Following the incubation period, 10 μl of arachidonic acid (750 μM) was added to each well to give a final arachidonic acid concentration of 30 μM. Plates were then incubated for a further 10 minutes, after which the incubation medium was removed from each well of the plates and stored at −20° C., prior to determination of prostaglandin E2 (PGE2) levels using enzyme immunoassay. The inhibitory potency of the test compound was expressed as an IC50 value, which is defined as the concentration of the compound required to inhibit the PGE2 release from the cells by 50%. The selectivity ratio of inhibition of COX-1 versus COX-2 was calculated by comparing respective IC50 values.

Row | Structure (SMILES) | IC50 (human COX-2) | IC50 (human COX-1)
1 | CS(=O)(=O)c1ccc(-c2cc(C(F)(F)F)nc(NC3CCOCC3)n2)cc1 [Example 1, 4-[4-(methylsulfonyl)phenyl]-N-tetrahydro-2H-pyran-4-yl-6-(trifluoromethyl)pyrimidin-2-amine] | 18 nM | > 91000 nM
2 | CN(c1nc(-c2ccc(S(C)(=O)=O)cc2)cc(C(F)(F)F)n1)C1CCOCC1 [Example 2, 4-[4-(Methylsulfonyl)phenyl]-N-methyl-N-tetrahydro-2H-pyran-4-yl-6-(trifluoromethyl)pyrimidin-2-amine] | 16.8 nM | 60400 nM
3 | CCN(c1nc(-c2ccc(S(C)(=O)=O)cc2)cc(C(F)(F)F)n1)C1CCOCC1 [Example 3, 4-[4-(Methylsulfonyl)phenyl]-N-ethyl-N-tetrahydro-2H-pyran-4-yl-6-(trifluoromethyl)pyrimidin-2-amine] | 24.9 nM | 69700 nM
4 | CCCCN(c1nc(-c2ccc(S(C)(=O)=O)cc2)cc(C(F)(F)F)n1)C1CCOCC1 [Example 4, 4-[4-(Methylsulfonyl)phenyl]-N-butyl-N-tetrahydro-2H-pyran-4-yl-6-(trifluoromethyl)pyrimidin-2-amine] | 143 nM | 71800 nM
